Consider 31 compounds from patent US20160145247A1, “Aminomethyl-Biaryl Derivatives Complement Factor D inhibitors and uses thereof” (NOVARTIS AG, priority 2013, published 2016).

Each structure is given as a SMILES string.

In the test the target is T1, factor D (Homo sapiens, UniProt P00746).
T1 construct: made in house; host or cells: E. coli
T1 sequence (P00746 26-253): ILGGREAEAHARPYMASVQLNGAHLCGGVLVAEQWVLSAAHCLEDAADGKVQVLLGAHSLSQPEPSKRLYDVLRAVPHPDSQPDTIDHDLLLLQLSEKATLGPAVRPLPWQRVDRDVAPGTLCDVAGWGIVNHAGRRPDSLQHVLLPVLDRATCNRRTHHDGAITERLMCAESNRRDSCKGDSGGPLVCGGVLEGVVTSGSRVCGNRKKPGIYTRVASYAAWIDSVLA
As to the kind of experiment: factor D inhibition assay of Biological Example 2. It is filed as biochemical.
As usually defined, the IC50 is the concentration at which inhibition is half-maximal. A higher IC50 goes with lower potency. In turn, `COc1ccc(C)c(Nc2cc(C(=O)Nc3ccccc3CC(=O)O)cc(-c3cc(F)cc(CN)c3)c2)c1` [Example 14-A] returned an IC50 of 15 nM.

On to `NCc1ccc(F)c(-c2cccc(C(=O)Nc3ccccc3CC(=O)O)c2)c1` [Example 4-B, 2-(2-(5′-(Aminomethyl)-2′-fluoro-[1,1′-biphenyl]-3-ylcarboxamido)phenyl)acetic acid], for which the IC50 amounted to 4600 nM.

`C[C@@H](N)c1cccc(-c2cc(COc3ccccc3CC(=O)O)c3c(c2)OCO3)c1F` [Example 253-E, (R)-2-(2-((6-(3-(1-Aminoethyl)-2-fluorophenyl)benzo[d][1,3]dioxol-4-yl)methoxy)phenyl)acetic acid] showed an IC50 of 13 nM.

Compound `NCc1nc(-c2cccc(COc3ccccc3CC(=O)O)c2)cs1` [Example 190-K] returned an IC50 of 133 nM.

Compound `NCc1cccc(-c2cc(Cl)cc(COc3ccccc3CC(=O)O)c2)c1` [Example 102-B, 2-(2-((3′-(Aminomethyl)-5-chloro-[1,1′-biphenyl]-3-yl)methoxy)phenyl)acetic acid] came in with an IC50 of 9 nM.

Turning to `NCc1cc(F)cc(-c2nc(C(=O)Nc3ccccc3CC(=O)O)c(NC[C@@H]3CCCO3)s2)c1` [Example 33, (S)-2-(2-(2-(3-(Aminomethyl)-5-fluorophenyl)-5-(((tetrahydrofuran-2-yl)methyl)amino)thiazole-4-carboxamido)phenyl)acetic acid], the IC50 came out at 7 nM.

Consider `C[C@@H](N)c1cccc(-c2cc(COc3ccccc3CC(=O)O)cc(OCCN3CCOCC3)c2)c1F` [Example 214-A], for which the IC50 was determined as 10 nM.

In the case of `C[C@@H](N)c1cccc(-c2cc(COc3ccccc3CC(=O)O)cc(OCc3ccn(C)n3)c2)c1F` [Example 214-E], the IC50 stood at 8 nM.

With `C[C@@H](N)c1cccc(-c2cc(COc3ccccc3CC(=O)O)cc(N3CCCCC3)c2)c1F` [Example 241-C, (R)-2-(2-((3′-(1-Aminoethyl)-2′-fluoro-5-(piperidin-1-yl)-[1,1′-biphenyl]-3-yl)methoxy)phenyl)acetic acid], the IC50 came out at 40 nM.

In turn, `N[C@H](CF)c1cccc(-c2cc(CNCC(F)(F)F)cc(COc3ccccc3CC(=O)O)c2)c1` [Example 284-B, (S)-2-(2-((3′-(1-amino-2-fluoroethyl)-5-(((2,2,2-trifluoroethyl)amino)methyl)-[1,1′-biphenyl]-3-yl)methoxy)phenyl)acetic acid] returned an IC50 of 228 nM. Compared with the last compound, the IC50 is about 5.7-fold higher.

Turning to `N[C@H](CO)c1cccc(-c2cc(F)cc(COc3ccccc3CC(=O)O)c2)c1` [Example 115-A], 3 nM corresponded to half-maximal inhibition (IC50). This IC50 lies about 76-fold lower than the previous one.

`N[C@H](CO)c1cccc(-c2cc(COc3ccccc3CC(=O)O)cc(C(O)C(F)(F)F)c2)c1` (mixture of isomers) [116-G a), 2-(2-((3′-((S)-1-amino-2-hydroxyethyl)-5-(2,2,2-trifluoro-1-hydroxyethyl)-[1,1′-biphenyl]-3-yl)methoxy)phenyl)acetic acid] yielded an IC50 of 6 nM. This IC50 lies about 2-fold higher than the previous one.

With `Cc1ccc(CC(=O)O)c(NC(=O)c2cccc(-c3cc(F)cc(CN)c3)n2)c1` [Example 21-M], the IC50 came to 22 nM.

Regarding `NCc1cc(F)cc(-c2cc(C(=O)Nc3ccccc3CC(=O)O)cc(-c3cnoc3)c2)c1` [Example 11-D, 2-(2-(3′-(Aminomethyl)-5′-fluoro-5-(isoxazol-4-yl)-[1,1′-biphenyl]-3-ylcarboxamido)phenyl)acetic acid], 17 nM corresponded to half-maximal inhibition (IC50). The IC50 values of the last two compounds are within 1.5-fold of each other.

In turn, `CNc1cc(C(=O)Nc2ccccc2CC(=O)O)nc(-c2cccc(CN)c2)c1` [Example 46, 2-(2-(6-(3-(aminomethyl)phenyl)-4-(methylamino)picolinamido)phenyl)acetic acid] came in with an IC50 of 6 nM.

`NCc1cc(Cl)cc(-c2cccc(COc3ccccc3CC(=O)O)c2)c1` [Example 291, 2-(2-((3′-(aminomethyl)-5′-chloro-[1,1′-biphenyl]-3-yl)methoxy)phenyl)acetic acid] came in with an IC50 of 190 nM.

As for `NCc1cccc(-c2ccc(-c3cccc(CN)c3)c(C(=O)Nc3ccccc3CC(=O)O)n2)c1` [Example 56-B, 2-(2-(3,6-bis(3-(Aminomethyl)phenyl)picolinamido)phenyl)acetic acid], the midpoint of inhibition, the IC50, lay at 117 nM.

In turn, `NC(CF)c1cccc(-c2cc(COc3ccccc3CC(=O)O)cc(OCC3CC3)c2)c1F` (racemic) [Example 206, (±)-2-(2-((3′-(1-Amino-2-fluoroethyl)-5-(cyclopropylmethoxy)-2′-fluoro-[1,1′-biphenyl]-3-yl)methoxy)phenyl)acetic acid] yielded an IC50 of 5 nM.

Consider `CC(C)OCc1cc(COc2ccccc2CC(=O)O)cc(-c2cccc([C@@H](C)N)c2)c1` [Example 120-P], for which the IC50 amounted to 7 nM.

For the compound `N[C@H](CO)c1cccc(-c2cc(COc3ccccc3CC(=O)O)cc(C(=O)N[C@H]3CCOc4ccccc43)c2)c1` [Example 287-G, 2-(2-((3′-((S)-1-amino-2-hydroxyethyl)-5-((S)-chroman-4-ylcarbamoyl)-[1,1′-biphenyl]-3-yl)methoxy)phenyl)acetic acid], the IC50 amounted to 37 nM.

The compound `NCc1cccc(-c2cc(O)cc(C(=O)Nc3ccccc3CC(=O)O)n2)c1` [Example 55, 2-(2-(6-(3-(Aminomethyl)phenyl)-4-hydroxypicolinamido)phenyl)acetic acid] gave an IC50 of 13 nM.

Turning to `Cn1ccc(CNc2cc(C(=O)Nc3ccccc3CC(=O)O)cc(-c3cc(F)cc(CN)c3)c2)n1` [Example 14-C], the IC50 turned out to be 5 nM.

The compound `Cn1nc(C2CC2)cc1Nc1cc(C(=O)Nc2ccccc2CC(=O)O)cc(-c2cc(F)cc(CN)c2)c1` [Example 78-B, 2-(2-(3′-(Aminomethyl)-5-((3-cyclopropyl-1-methyl-1H-pyrazol-5-yl)amino)-5′-fluoro-[1,1′-biphenyl]-3-ylcarboxamido)phenyl)acetic acid] yielded an IC50 of 22 nM.

In turn, `NCc1cccc(-c2nc(C(=O)Nc3ccccc3CC(=O)O)cs2)c1` [Example 27, 2-(2-(2-(3-(Aminomethyl)phenyl)thiazole-4-carboxamido)phenyl)acetic acid] returned an IC50 of 50 nM. This IC50 lies about 2.3-fold higher than the previous one.

Compound `CC(O)c1cc(COc2ccccc2CC(=O)O)cc(-c2cccc([C@@H](C)N)c2)c1` (stereo partly shown) [Example 116-F] returned an IC50 of 5 nM.

`NCc1cc(F)cc(-c2cc(Br)cc(C(=O)Nc3ccccc3CC(=O)O)c2)c1` [Example 12, 2-(2-(3′-(Aminomethyl)-5-bromo-5′-fluoro-[1,1′-biphenyl]-3-ylcarboxamido)phenyl)acetic acid]: it took 80 nM to reach half-maximal inhibition (IC50).

In turn, `NCc1cccc(-c2cccc(COc3ccccc3CC(=O)O)c2)n1` [Example 138-N] yielded an IC50 of 28 nM.

As to `CC(=O)NCc1ccc(CC(=O)O)c(OCc2cccc(-c3cccc(CN)c3)c2)c1` [Example 294-D], the IC50 turned out to be 10 nM. This IC50 lies about 2.8-fold lower than the previous one.

In turn, `N#Cc1ccc(COc2ccccc2CC(=O)O)cc1-c1cccc(CN)c1` [Example 289, 2-(2-((3′-(aminomethyl)-6-cyano-[1,1′-biphenyl]-3-yl)methoxy)phenyl)acetic acid] showed an IC50 of 850 nM.

Turning to `NCc1cccc(-c2ccnc(COc3ccccc3CC(=O)O)c2)c1` [Example 164, 2-(2-((4-(3-(Aminomethyl)phenyl)pyridin-2-yl)methoxy)phenyl)acetic acid], the IC50 is 13 nM. This IC50 lies about 65-fold lower than the previous one.

As to `NCc1cccc(-c2cc(OC[C@H]3CCCO3)cc(C(=O)Nc3ccccc3CC(=O)O)c2)c1` [Example 74-D, (R)-2-(2-(3′-(Aminomethyl)-5-((tetrahydrofuran-2-yl)methoxy)-[1,1′-biphenyl]-3-ylcarboxamido)phenyl)acetic acid], the midpoint of inhibition, the IC50, lay at 9 nM. This IC50 and that of the compound before are within 1.5-fold of each other.
